Legend:
[1] = target: C-C chemokine receptor type 5 (Homo sapiens, UniProt P51681); experiment: Antagonist activity at human CCR5 expressed in CHO cells assessed as inhibition of MIP-1alpha-induced calcium mobilization; assay type: functional, cell-based
Liver microsomes [2] = experiment: Metabolic stability in rat liver microsomes assessed as compound remaining after 15 mins; assay type: ADME, Microsome; settings: 0.25 h
[3] = tested on: Human immunodeficiency virus 1; experiment: microbe, parasite or virus in culture; settings: Human immunodeficiency virus 1, Ba-L
Description: Antiviral activity against R5 tropic HIV1 Ba-L infected PBMC assessed as inhibition of viral p24 antigen expression

[4] = Bioavailability in rat at 10 mg/kg, po; assay type: ADME, organism-based; settings: in vivo
[5] = Half life in rat at 3 mg/kg, iv; assay type: ADME, organism-based; design: dose 3 mg/kg, route intravenous; settings: in vivo
[6] = Clearance in rat at 3 mg/kg, iv; assay type: ADME, organism-based; design: dose 3 mg/kg, route intravenous; settings: in vivo
[7] = AUC in rat at 3 mg/kg, iv; assay type: ADME, organism-based; design: dose 3 mg/kg, route intravenous; settings: plasma
[8] = Half life in rat at 10 mg/kg, po; assay type: ADME, organism-based; design: dose 10 mg/kg, route oral; settings: in vivo
Liver microsomes [9] = experiment: Metabolic stability in human liver microsomes assessed as compound remaining after 15 mins; assay type: ADME, Microsome; settings: 0.25 h
[10] = Cmax in rat at 10 mg/kg, po; assay type: ADME, organism-based; design: dose 10 mg/kg, route oral; settings: in vivo
[11] = Aqueous solubility of the compound at pH 6.8; assay type: physicochemical; settings: buffer
Rattus norvegicus [12] = experiment: Dose normalized Cmax in rat at 10 mg/kg, po; assay type: ADME, organism-based; design: dose 10 mg/kg, route oral; settings: in vivo
Rattus norvegicus [13] = experiment: Dose normalized AUC in rat at 10 mg/kg, po; assay type: ADME, organism-based; design: dose 10 mg/kg, route oral; settings: in vivo
Canis familiaris = experiment: Cardiotoxicity in dog at 100 mg/kg, po after 14 days; assay type: toxicity, organism-based, Canis lupus familiaris; design: dose 100 mg/kg, route oral; settings: in vivo, 336 h
[14] = Bioavailability in rat at 1 mg/kg, iv; assay type: ADME, organism-based; settings: in vivo
[15] = Bioavailability in monkey at 1 mg/kg, iv; assay type: ADME, organism-based, Macaca mulatta; settings: rhesus monkey, in vivo
Salmonella typhimurium = experiment: Genotoxicity in Salmonella Typhimurium by Ames test; assay type: toxicity, organism-based; settings: salmonella enterica subsp. enterica serovar typhimurium
in vivo [16] = settings: dog, plasma, po, 3 mg/kg
in vivo [17] = settings: dog, po, 3 mg/kg
[18] = Half life in dog at 3 mg/kg, po; assay type: ADME, organism-based, Canis lupus familiaris; design: dose 3 mg/kg, route oral; settings: in vivo
[19] = Clearance in dog at 1 mg/kg, iv; assay type: ADME, organism-based, Canis lupus familiaris; design: dose 1 mg/kg, route intravenous; settings: in vivo
[20] = Bioavailability in dog at 1 mg/kg, iv; assay type: ADME, organism-based, Canis lupus familiaris; settings: in vivo
Rhesus monkey = experiment: Half life in monkey at 10 mg/kg, po; assay type: ADME, organism-based, Macaca mulatta; design: dose 10 mg/kg, route oral; settings: in vivo
Rattus norvegicus [21] = experiment: Toxicity in rat at 100 mg/kg, po after 14 days; assay type: organism-based; design: dose 100 mg/kg, route oral; settings: in vivo, 336 h
[22] = Clearance in rat at 1 mg/kg, iv; assay type: ADME, organism-based; design: dose 1 mg/kg, route intravenous; settings: in vivo
[23] = Clearance in monkey at 1 mg/kg, iv; assay type: ADME, organism-based, Macaca mulatta; design: dose 1 mg/kg, route intravenous; settings: rhesus monkey, in vivo
[24] = Volume of distribution at steady state in rat at 3 mg/kg, iv; settings: in vivo

Chain of C-C chemokine receptor type 5 (P51681 whole entry): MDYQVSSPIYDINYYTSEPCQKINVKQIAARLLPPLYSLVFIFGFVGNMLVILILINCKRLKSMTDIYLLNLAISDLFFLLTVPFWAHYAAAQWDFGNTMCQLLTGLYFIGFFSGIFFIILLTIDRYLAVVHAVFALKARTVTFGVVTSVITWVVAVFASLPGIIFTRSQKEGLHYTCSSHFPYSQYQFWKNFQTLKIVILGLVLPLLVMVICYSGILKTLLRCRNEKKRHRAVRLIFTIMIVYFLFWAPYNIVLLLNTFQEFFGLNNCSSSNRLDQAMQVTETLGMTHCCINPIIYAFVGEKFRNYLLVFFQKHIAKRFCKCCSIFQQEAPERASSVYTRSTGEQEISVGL

For `CCCCN1C(=O)[C@@H]([C@H](O)C(C)C)NC(=O)C12CCN(Cc1ccc(Oc3ccc(C(=O)O)cc3)cc1)CC2.Cl`, the IC50 [1] was 0.048 µM, the Stability (Liver microsomes [2]) was 100% and the IC50 [3] was 0.059 µM. The IC90 [3] was 0.591 µM, the bioavailability [4] was 5.9% and the half-life [5] was 0.22 h. The clearance [6] was 21.2 mL/min/kg, the AUC [7] was 2310 ng·h/mL and the half-life [8] was 4.5 h. It also gave a Stability (Liver microsomes [9]) of 98% and a Cmax [10] of 137 ng/mL.

Molecule `CCN1C(=O)[C@@H]([C@H](O)C2CCCCC2)NC(=O)C12CCN(Cc1ccc(Oc3ccc(C(=O)NC)cc3)cc1)CC2` has an IC50 [1] of 0.02 µM.

Molecule `CCCCN1C(=O)[C@@H]([C@H](O)C2CCCCC2)NC(=O)C12CCN(Cc1ccc(Oc3ccc(C(N)=O)cc3)cc1)CC2.Cl` has an IC50 [1] of 0.039 µM, a Stability (Liver microsomes [2]) of 19% and a Stability (Liver microsomes [9]) of 1.5%.

For `CCCCN1C(=O)[C@@H]([C@H](O)C2CCCCC2)NC(=O)C12CCN(Cc1ccc(Oc3ccc(O)cc3)cc1)CC2.Cl`, the IC50 [1] was 0.068 µM, the Stability (Liver microsomes [2]) was 23% and the Stability (Liver microsomes [9]) was 3.5%.

In the case of `CCCCN1C(=O)[C@@H]([C@H](O)C(C)C)NC(=O)C12CCN(Cc1ccc(Oc3ccccc3)cc1)CC2.Cl`, the solubility [11] is reported as 2.7 µg/mL.

In the case of `CCCCN1C(=O)[C@@H]([C@H](O)C2CCCCC2)NC(=O)C12CCN(Cc1ccc(Oc3ccccc3)cc1)CC2.Cl`, the Stability (Liver microsomes [2]) is reported as 18% and the Stability (Liver microsomes [9]) is reported as 6%.

With `CCCCN1C(=O)[C@@H]([C@H](O)C2CC2)NC(=O)C12CCN(Cc1ccc(Oc3ccc(C(=O)O)cc3)cc1)CC2.Cl` the IC50 [1] was 0.081 µM, the Stability (Liver microsomes [2]) was 100% and the Stability (Liver microsomes [9]) was 89%.

With `CCCCN1C(=O)[C@@H]([C@@H](O)C2CCC(O)CC2)NC(=O)C12CCN(Cc1ccc(Oc3ccc(C(=O)O)cc3)cc1)CC2.Cl` (some centres not stated) the IC50 [1] was 0.023 µM and the Stability (Liver microsomes [2]) was 92%.

Molecule `CCCCCN1C(=O)[C@@H]([C@H](O)C2CCCCC2)NC(=O)C12CCN(Cc1ccc(Oc3ccc(C(=O)NC)cc3)cc1)CC2` has an IC50 [1] of 0.068 µM.

Molecule `CCCCN1C(=O)[C@@H]([C@H](O)C2CCCCC2)NC(=O)C12CCN(Cc1ccc(Oc3ccc(C(=O)NC)cc3)cc1)CC2.Cl` has a Cmax/dose (Rattus norvegicus [12]) of 333 ng/mL, an IC50 [1] of 0.038 µM and a bioavailability [4] of 10%. It also gave a half-life [5] of 0.46 h, a clearance [6] of 12.8 mL/min/kg and an AUC [7] of 3780 ng·h/mL. For the same molecule, the half-life [8] was 1.22 h and the AUC/dose (Rattus norvegicus [13]) was 1296 ng·h/mL.

For `CNC(=O)c1ccc(Oc2ccc(CN3CCC4(CC3)C(=O)N[C@H]([C@H](O)C3CCCCC3)C(=O)N4CCN)cc2)cc1`, the IC50 [1] was 0.75 µM.

Work on `CNC(=O)c1ccc(Oc2ccc(CN3CCC4(CC3)C(=O)N[C@H]([C@H](O)C3CCCCC3)C(=O)N4CCOC)cc2)cc1` yielded an IC50 [1] of 0.033 µM.

`CCCCN1C(=O)[C@@H]([C@H](O)C2CCCCC2)NC(=O)C12CCN(Cc1ccc(Oc3ccc(S(N)(=O)=O)cc3)cc1)CC2` gave an IC50 [1] of 0.048 µM.

For `COC[C@@H](c1ccc(C(F)(F)F)cc1)N1CCN(C2(C)CCN(C(=O)c3c(C)ncnc3C)CC2)C[C@@H]1C` [VICRIVIROC], the IC90 [3] was 0.079 µM.

Molecule `Cc1c(O)cccc1C(=O)N[C@@H](CSc1ccccc1)[C@H](O)CN1C[C@H]2CCCC[C@H]2C[C@H]1C(=O)NC(C)(C)C` has an IC90 [3] of 0.105 µM.

In the case of `CCCCN1C(=O)[C@@H]([C@H](O)C2CCCCC2)NC(=O)C12CCN(Cc1ccc(Oc3ccc(C(=O)O)cc3)cc1)CC2.Cl` [APLAVIROC HYDROCHLORIDE], the Activity (Canis familiaris) is reported as “Non-toxic”, the bioavailability [14] is reported as 23% and the bioavailability [15] is reported as 4.6%. The Activity (Salmonella typhimurium) was “Non-toxic”, the IC90 [3] was 0.012 µM and the AUC (in vivo [16]) was 189 ng·h/mL. For the same molecule, the Cmax (in vivo [17]) was 135 ng/mL, the half-life [18] was 4.5 h and the clearance [19] was 33 mL/min. The bioavailability [20] was 12%, the t1/2 (Rhesus monkey) was 24.4 h and the Activity (Rattus norvegicus [21]) was “Non-toxic”. It also gave a clearance [22] of 10 mL/min and a clearance [23] of 15 mL/min.

`CCCN1C(=O)[C@@H]([C@H](O)C2CCCCC2)NC(=O)C12CCN(Cc1ccc(Oc3ccc(C(=O)NC)cc3)cc1)CC2.Cl` showed a Cmax/dose (Rattus norvegicus [12]) of 133 ng/mL, an IC50 [1] of 0.028 µM and a bioavailability [4] of 11.2%. For the same molecule, the half-life [5] was 0.72 h, the clearance [6] was 35.9 mL/min/kg and the AUC [7] was 1370 ng·h/mL. For the same molecule, the half-life [8] was 2 h, the Vd [24] was 1.73 L/kg and the AUC/dose (Rattus norvegicus [13]) was 513 ng·h/mL.

Molecule `CCCCN1C(=O)[C@@H]([C@H](O)C2CCCCCC2)NC(=O)C12CCN(Cc1ccc(Oc3ccc(C(=O)O)cc3)cc1)CC2.Cl` has an IC50 [1] of 0.032 µM, a Stability (Liver microsomes [2]) of 59% and a Stability (Liver microsomes [9]) of 34%.

Molecule `CNC(=O)c1ccc(Oc2ccc(CN3CCC4(CC3)C(=O)N[C@H]([C@H](O)C3CCCCC3)C(=O)N4CCC(C)O)cc2)cc1` (some centres not stated) has an IC50 [1] of 0.18 µM.
